Experiment: Bioavailability of amisulpride administered by the oral route
Conditions: in vivo, conventional amisulpride, of the order of

bioavailability: 35 to 45%
Compound: CCN1CCCC1CNC(=O)c1cc(S(=O)(=O)CC)c(N)cc1OC (stereo not shown) [amisulpride, 4-amino-N-[(1-ethylpyrrolidin-2-yl)methyl]-5-(ethylsulphonyl)-2-methoxybenzamide]

— patent US6069165A, “Pharmaceutical compositions containing amisulpride and their therapeutic applications” (Synthelabo, priority 1996, dated 2000)
